In data set [1] the target is T1, F508del-CFTR (Homo sapiens, UniProt P13569, DEL508-508).
T1 construct: expressed in transfected cells
Put plainly: Membrane potential optical (FLIPR) assay for F508del-CFTR modulators in NIH 3T3 cells. The data set is classed as cell-based. Particulars: for EC50: assay A1. In a few lines: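 NIH3T3 mouse fibroblasts stably expressing F508del, seeded on matrigel and cultured 18-24 h at 37 °C; for correction, cells were cultured with or without compound for 18-24 h. Cells were loaded with voltage-sensing dye, then compound was added in one step with a chloride gradient (chloride replaced by gluconate). Membrane potential was read by fluorescence.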

The target of data set [2] is T2, human PXR (Homo sapiens, UniProt O75469).
T2 construct: host or cells: DPX-2 cell line (derived from HepG2)
T2 sequence (O75469 1-434): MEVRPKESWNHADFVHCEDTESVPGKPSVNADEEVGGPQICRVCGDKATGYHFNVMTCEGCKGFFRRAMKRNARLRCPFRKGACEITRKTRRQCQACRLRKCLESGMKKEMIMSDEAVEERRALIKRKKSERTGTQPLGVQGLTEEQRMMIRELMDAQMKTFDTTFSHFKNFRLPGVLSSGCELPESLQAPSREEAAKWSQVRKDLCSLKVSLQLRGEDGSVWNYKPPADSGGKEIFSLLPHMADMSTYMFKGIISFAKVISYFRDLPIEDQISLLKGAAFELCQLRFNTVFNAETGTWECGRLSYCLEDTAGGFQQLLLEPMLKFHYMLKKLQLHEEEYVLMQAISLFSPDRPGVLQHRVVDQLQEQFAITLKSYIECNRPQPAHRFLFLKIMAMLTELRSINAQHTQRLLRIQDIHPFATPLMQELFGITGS
Put plainly: PXR assay: PXR mediated CYP3A4 induction in DPX-2 cell line. It counts as cell-based. Particulars: DPX-2 cells. In short, it runs like this:
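HepG2-derived DPX-2 cells stably carrying human PXR and a CYP3A4 promoter/enhancer–luciferase reporter; 11 doses from 0.1 to 60 μM for 48 h, rifampicin as positive control. Viability read by fluorescence, then luciferase luminescence; max fold induction over vehicle and EC50 reported.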

The nature of data set [3]: MDCK-Wild Type permeability, 96 well + 0.1% BSA. The conditions noted are these: dog, MDCK, A-B direction, read-out: MDCK-Wild Type-Permeability 96 well + 0.1% BSA Papp compound (A-B). It counts as in vitro ADME.
Data set [4] deals with Rat hepatocytes. Put plainly: Hepatocyte clearance, rat hepatocytes. It counts as in vitro ADME. Particulars: percent unchanged.
Data set [5] is described as follows: Rat IV and PO PK studies. The data set is classed as in vivo, male Sprague-Dawley rats. On the procedure: C. Experimental Protocol for Rat IV and PO PK Studies
The tested compound was administered to male Sprague-Dawley rats as a single nominal intravenous dose of 3.0 mg/kg as a solution in 10% NMP, 10% solution, 15% EtOH, 35% PEG400 and 30% D5W. The tested compound was also administered to male Sprague-Dawley rats at single nominal oral dose of 3 mg/kg as a solution in 5% NMP, 30% PEG400, 10% TPGS, 5% PVP-K30 at 5 mL/kg dose volume. Analyses of plasma and dose preparations were performed using LC/MS/MS.
Plasma concentration-time profiles of the tested compound in Sprague-Dawley rats at scheduled (nominal) sampling times were analyzed by noncompartmental pharmacokinetic methods using PK function within Watson LIMS software, Version 7.4.2 (Thermo Scientific Inc, Waltham, Mass.). AUC values were calculated using the linear trapezoidal rule.

The test system of data set [6] is F508del/F508del-HBE cells. Put plainly: Ussing chamber chloride transport experiment. The data set is classed as cell-based. The protocol:
Ussing chamber experiments were performed on polarized airway epithelial cells expressing F508del to further characterize the F508del modulators identified in the optical assays. Non-CF and CF airway epithelia were isolated from bronchial tissue, cultured as previously described (Galietta, L. J. V., Lantero, S., Gazzolo, A., Sacco, O., Romano, L., Rossi, G. A., & Zegarra-Moran, O. (1998) In Vitro Cell. Dev. Biol. 34, 478-481), and plated onto Costar® Snapwell™ filters that were precoated with NIH3T3-conditioned media. After four days the apical media was removed and the cells were grown at an air liquid interface for >14 days prior to use. […] CF-HBE were isolated from patients homozygous for F508del or compound heterozygous for F508del with an different disease causing mutation on the other allele.
HBE grown on Costar® Snapwell™ cell culture inserts were mounted in an Ussing chamber (Physiologic Instruments, Inc., San Diego, Calif.), and the transepithelial resistance and short-circuit current in the presence of a basolateral to apical Cl^− gradient (ISC) were measured using a voltage-clamp system (Department of Bioengineering, University of Iowa, Iowa). Briefly, HBE were examined under voltage-clamp recording conditions (Vhold=0 mV) at 37° C. […]

Data set [7] can be described thus: Metabolism of Compound 1 in vitro and in vivo.
Data set [8] relates to MDCK-Wild Type. Put plainly: MDCK-Wild Type permeability, 96 well + 0.1% BSA. It counts as in vitro ADME. Particulars: A-B direction.
The mark [9] stands for this setting: NIH 3T3 cells expressing F508del, read-out: CFTRdF508 Cor 3T3 FLIPR 384 CFTRdF508 MP 3T3 770 EC50.

Read-outs that look alike come from different tables or passages of the source.

T1 sequence (P13569 with tags, fused parts or gaps DEL508-508): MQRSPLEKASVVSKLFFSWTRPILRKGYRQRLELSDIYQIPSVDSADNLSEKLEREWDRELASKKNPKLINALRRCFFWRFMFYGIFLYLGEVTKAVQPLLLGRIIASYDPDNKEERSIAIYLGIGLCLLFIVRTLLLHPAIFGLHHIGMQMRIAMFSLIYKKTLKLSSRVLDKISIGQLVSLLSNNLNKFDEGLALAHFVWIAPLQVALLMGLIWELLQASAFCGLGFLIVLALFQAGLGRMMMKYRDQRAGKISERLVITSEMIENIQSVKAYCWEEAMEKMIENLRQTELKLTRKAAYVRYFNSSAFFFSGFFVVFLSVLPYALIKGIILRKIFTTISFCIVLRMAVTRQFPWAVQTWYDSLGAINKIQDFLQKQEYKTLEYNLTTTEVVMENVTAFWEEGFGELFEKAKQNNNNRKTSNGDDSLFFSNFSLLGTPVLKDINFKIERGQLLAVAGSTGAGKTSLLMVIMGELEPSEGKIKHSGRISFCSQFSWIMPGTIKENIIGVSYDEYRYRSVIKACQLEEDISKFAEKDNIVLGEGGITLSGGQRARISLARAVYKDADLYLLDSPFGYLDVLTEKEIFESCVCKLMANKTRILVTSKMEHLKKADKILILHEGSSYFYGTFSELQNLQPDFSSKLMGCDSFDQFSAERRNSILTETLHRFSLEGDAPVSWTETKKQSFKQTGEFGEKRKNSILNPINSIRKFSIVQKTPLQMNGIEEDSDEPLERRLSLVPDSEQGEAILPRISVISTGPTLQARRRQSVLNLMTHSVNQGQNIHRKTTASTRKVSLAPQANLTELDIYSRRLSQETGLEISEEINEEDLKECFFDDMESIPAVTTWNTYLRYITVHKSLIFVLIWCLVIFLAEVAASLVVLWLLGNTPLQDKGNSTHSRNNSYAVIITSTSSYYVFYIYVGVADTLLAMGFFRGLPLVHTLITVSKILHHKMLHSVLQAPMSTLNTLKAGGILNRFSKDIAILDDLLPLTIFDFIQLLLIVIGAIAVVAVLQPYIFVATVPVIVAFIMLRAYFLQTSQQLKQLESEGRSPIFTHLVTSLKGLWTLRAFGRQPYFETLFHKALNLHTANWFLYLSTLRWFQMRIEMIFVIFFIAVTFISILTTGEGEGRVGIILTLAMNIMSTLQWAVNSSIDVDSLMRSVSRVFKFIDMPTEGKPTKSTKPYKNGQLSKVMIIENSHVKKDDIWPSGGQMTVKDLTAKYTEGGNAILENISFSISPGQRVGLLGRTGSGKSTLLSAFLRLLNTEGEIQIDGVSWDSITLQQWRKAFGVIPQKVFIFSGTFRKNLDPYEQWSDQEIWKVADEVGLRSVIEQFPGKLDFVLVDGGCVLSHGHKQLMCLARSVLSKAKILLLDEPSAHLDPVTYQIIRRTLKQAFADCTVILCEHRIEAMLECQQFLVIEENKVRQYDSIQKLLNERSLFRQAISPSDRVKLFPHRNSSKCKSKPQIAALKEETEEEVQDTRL

With `Cc1nn(C)cc1S(=O)(=O)NC(=O)c1ccc(-n2ccc(OCC(C)(C)C(F)(F)F)n2)nc1N1C[C@@H](C)CC1(C)C` [Compound 1, N-(1,3-dimethylpyrazol-4-yl)sulfonyl-6-[3-(3,3,3-trifluoro-2,2-dimethyl-propoxy)pyrazol-1-yl]-2-[(4S)-2,2,4-trimethylpyrrolidin-1-yl]pyridine-3-carboxamide], the Emax in data set [1] (NIH3T3, assay A1, read-out: % Efficacy relative to Compound II) was at least 100%. In addition, the EC50 in data set [1] (setting [9]) is 70 nM; in data set [1] (read-out: EC50) it was under 3000 nM. Besides, the “CYP3A4 Induction-PXR human PXR internal Max % Activity” value in data set [2] worked out at 2%. Moreover, the Papp A→B in data set [3] amounted to 4.5 ×10⁻⁶ cm/s. In addition, in data set [4], the “Hepatocyte clearance-Rat Rat hepatocytes CL pct_unchanged” value is listed as 66%. In addition, in data set [5] (IV bolus, nominal 3.0 mg/kg), the “RAT PLASMA-RAW IV-bolus CL_drg” value amounted to 1.6 mL/min/kg. The “RAT PLASMA-RAW PO % F_drg” value in data set [5] (PO, nominal 3 mg/kg) is given as 83%. Moreover, the AUC(0-inf) in data set [5] (male, Sprague-Dawley, plasma, PO, nominal 3 mg/kg, read-out: RAT PLASMA-RAW PO AUC (0-inf)_drg) worked out at 23500 ng·h/mL. Moreover, the “effect on chloride transport in combination with Compound II” value in data set [6] was “additive to the effect of Compound II”. For the same compound, the chloride transport result in data set [6] (Compound 1 alone) is given as “enhanced chloride transport”. The metabolism result in data set [7] (in vitro and in vivo) was “metabolized both in vitro and in vivo, mostly by oxidative metabolism”.
For `Cc1nn(C)cc1S(=O)(=O)NC(=O)c1ccc(-n2ccc(OCC(C)(C)C(F)(F)F)n2)nc1N1CC(CO)CC1(C)C` (stereo not shown) [Compound 30, N-(1,3-dimethylpyrazol-4-yl)sulfonyl-2-[4-(hydroxymethyl)-2,2-dimethyl-pyrrolidin-1-yl]-6-[3-(3,3,3-trifluoro-2,2-dimethyl-propoxy)pyrazol-1-yl]pyridine-3-carboxamide], the EC50 in data set [1] (setting [9]) is 950 nM. The “CYP3A4 Induction-PXR human PXR internal Max % Activity” value in data set [2] is recorded as 4%. Also, in data set [3], the Papp A→B came to 0.6 ×10⁻⁶ cm/s. For the same compound, in data set [4], the “Hepatocyte clearance-Rat Rat hepatocytes CL pct_unchanged” value was 39%. In addition, the metabolite identity result in data set [7] is “metabolites of Compound 1”.
In the same order, the values of `Cc1n[nH]cc1S(=O)(=O)NC(=O)c1ccc(-n2ccc(OCC(C)(C)C(F)(F)F)n2)nc1N1C[C@@H](C)CC1(C)C` [Compound 31, (S)—N-((3-methyl-1H-pyrazol-4-yl)sulfonyl)-6-(3-(3,3,3-trifluoro-2,2-dimethylpropoxy)-1H-pyrazol-1-yl)-2-(2,2,4-trimethylpyrrolidin-1-yl)nicotinamide] are 410 nM, 1%, 1.1 ×10⁻⁶ cm/s, 30% and “metabolites of Compound 1”.
With `Cc1nn(C)cc1S(=O)(=O)NC(=O)c1ccc(-n2ccc(OC3CC3C(F)(F)F)n2)nc1N1C[C@@H](C)CC1(C)C` (stereo partly drawn) [Compound 35, N-(1,3-dimethylpyrazol-4-yl)sulfonyl-6-[3-[2-(trifluoromethyl)cyclopropoxy]pyrazol-1-yl]-2-[(4S)-2,2,4-trimethylpyrrolidin-1-yl]pyridine-3-carboxamide], in data set [1] (setting [9]), the 50% effective concentration (EC50) came to 1400 nM. Also, the “CYP3A4 Induction-PXR human PXR internal Max % Activity” value in data set [2] turned out to be 21%. Besides, in data set [8], the “MDCK-Wild Type-Permeability 96 well + 0.1% BSA Papp compound (A-B)” value is recorded as 5.5 10E-6 cm/s. The “Hepatocyte clearance-Rat Rat hepatocytes CL pct_unchanged” value in data set [4] turned out to be 54%.
In the case of `Cc1nn(C)cc1S(=O)(=O)N1C(=O)c2ccc(-n3ccc(OCC(C)(C)C(F)(F)F)n3)nc2N2C1[C@@H](C)CC2(C)C` (stereo partly shown) [Compound 36, (75)-6-((1,3-dimethyl-1H-pyrazol-4-yl)sulfonyl)-7,9,9-trimethyl-2-(3-(3,3,3-trifluoro-2,2-dimethylpropoxy)-1H-pyrazol-1-yl)-6a,7,8,9-tetrahydropyrido[3,2-e]pyrrolo[1,2-a]pyrimidin-5(6H)-one], the metabolite identity entry in data set [7] was “metabolites of Compound 1”.
With `C[C@@H]1CN(c2nc(-n3ccc(OCC(C)(C)C(F)(F)F)n3)ccc2C(=O)NS(=O)(=O)c2cn(C)nc2CO)C(C)(C)C1` [Compound 39, N-[3-(hydroxymethyl)-1-methyl-pyrazol-4-yl]sulfonyl-6-[3-(3,3,3-trifluoro-2,2-dimethyl-propoxy)pyrazol-1-yl]-2-[(4S)-2,2,4-trimethylpyrrolidin-1-yl]pyridine-3-carboxamide], the EC50 in data set [1] (setting [9]) turned out to be 460 nM. Besides, the “CYP3A4 Induction-PXR human PXR internal Max % Activity” value in data set [2] was determined as 1%. In data set [4], the “Hepatocyte clearance-Rat Rat hepatocytes CL pct_unchanged” value amounted to 39%. In addition, in data set [7], the metabolite identity entry was “metabolites of Compound 1”.
For the compound `Cc1nn(C)cc1S(=O)(=O)NC(=O)c1ccc(-n2ccc(OCC(C)(CO)C(F)(F)F)n2)nc1N1C[C@@H](C)CC1(C)C` (stereo partly drawn) [Compound 45, N-(1,3-dimethylpyrazol-4-yl)sulfonyl-6-[3-[3,3,3-trifluoro-2-(hydroxymethyl)-2-methyl-propoxy]pyrazol-1-yl]-2-[(4S)-2,2,4-trimethylpyrrolidin-1-yl]pyridine-3-carboxamide], the concentration for a half-maximal effect (EC50) in data set [1] (setting [9]) was found to be 560 nM. The “CYP3A4 Induction-PXR human PXR internal Max % Activity” value in data set [2] stood at 9%. Besides, the Papp A→B in data set [3] is 1.2 ×10⁻⁶ cm/s. The “Hepatocyte clearance-Rat Rat hepatocytes CL pct_unchanged” value in data set [4] is reported as 49%. In addition, the metabolite identity result in data set [7] is “metabolites of Compound 1”.
With `C[C@H]1CC(C)(C)N2c3nc(-n4ccc(OCC(C)(C)C(F)(F)F)n4)ccc3C(=O)OC12` (stereo partly drawn) [Compound 57, (7S)-7,9,9-trimethyl-2-(3-(3,3,3-trifluoro-2,2-dimethylpropoxy)-1H-pyrazol-1-yl)-6a,7,8,9-tetrahydro-5H-pyrido[2,3-d]pyrrolo[2,1-b][1,3]oxazin-5-one], the EC50 in data set [1] (setting [9]) was determined as 30000 nM. For the same compound, the “CYP3A4 Induction-PXR human PXR internal Max % Activity” value in data set [2] is 13%. Also, in data set [4], the “Hepatocyte clearance-Rat Rat hepatocytes CL pct_unchanged” value came out at 35%. The metabolite identity entry in data set [7] is “metabolites of Compound 1”.

(Values after US10793547B2, “Modulator of the cystic fibrosis transmembrane conductance regulator, pharmaceutical compositions, methods of treatment, and process for making the modulator” (Vertex Pharmaceuticals Incorporated, priority 2016, dated 2020).)
